Measured values: patent publication US7833939B2, “Herbicide compositions” (Kumiai Chemical Industry Co., Ltd., priority 2002, dated 2010)
Values belong to the compound of their own block, whether it stands above or below them.

How the values were obtained:
[1] = test system: green foxtail (Setaria viridis); assay: Herbicidal effect by upland field soil treatment (Application Example 1): green foxtail; format: in vivo; details: 30th day from treatment
Description: (§1) Test for Herbicidal Effect by Upland Field Soil Treatment
(§2) An upland field soil was filled in a plastic pot of 11 cm each of length, width and depth. Seeds of corn, green foxtail (Setaria viridis) and common lambsquarters (Chenopodium album L.) were sowed, followed by covering with the same soil. The wettable powder produced in accordance with Formulation 1 was weighed so as to provide active ingredients in a predetermined amount, and was diluted with water and sprayed uniformly on the soil surface using a small sprayer, in an amount of 100 liters per […]. Then, growing was made in a greenhouse, and the herbicidal effect of each wettable powder was examined at the 30th day from the treatment in accordance with the standard shown in Table 15.

corn = assay: Herbicidal effect by upland field soil treatment (Application Example 1): phytotoxicity to corn; format: in vivo; details: 30th day from treatment
Description: as §1, §2

[2] = test system: common lambsquarters (Chenopodium album L.); assay: Herbicidal effect by upland field soil treatment (Application Example 1): common lambsquarters; format: in vivo; details: 30th day from treatment
Description: as §1, §2

[3] = 32 g a.i./ha, soil surface spray of wettable powder, index of Table 15
[4] = 32 g a.i./ha, upland field soil treatment
[5] = 16 g a.i./ha, upland field soil treatment
[6] = 16 g a.i./ha, soil surface spray of wettable powder, index of Table 15
[7] = 500 g a.i./ha, soil surface spray of wettable powder, index of Table 15
[8] = 500 g a.i./ha, upland field soil treatment

melting point: 89 to 90 °C
Structure (SMILES): CC1(C)CC(SCc2c(C(F)(F)F)nn(-c3ccccc3)c2Cl)=NO1

melting point: 79 to 81 °C
Structure (SMILES): CC1(C)CC(SCc2c(C(F)(F)F)nn(C(C)(C)C)c2Cl)=NO1

melting point: 120 to 122 °C
Structure (SMILES): CC1(C)CC(SCc2c(C(F)(F)F)n[nH]c2Cl)=NO1

melting point: 41 to 42 °C
Structure (SMILES): CC1(C)CC(SCc2c(C(F)(F)F)nn(C(F)F)c2Cl)=NO1

melting point: 89 to 90 °C
Structure (SMILES): CC1(C)CC(SCc2c(Cl)nn(C(F)F)c2C(F)(F)F)=NO1

melting point: 151 to 152 °C
Structure (SMILES): CC1(C)CC(S(=O)(=O)Cc2c(C(F)(F)F)nn3c2OCCC3)=NO1

melting point: 77 to 80 °C
Structure (SMILES): CC1(C)CC(S(=O)(=O)Cc2cnccc2C(F)(F)F)=NO1

melting point: 95 to 96 °C
Structure (SMILES): CON=C(C)c1c(C)sc(C)c1CS(=O)(=O)C1=NOC(C)(C)C1 [Compound 2-0001, 5,5-dimethyl-3-[2,5-dimethyl-4-(1-methoxyiminoethyl)-thiophen-3-ylmethylsulfonyl]-2-isoxazoline]
Herbicidal effect Green foxtail (Sataria viridis) [1, 3]: 2 (Herbicidal effect or phytotoxicity of from 20 to 29%)
Herbicidal effect Corn (corn; [3]): 0 (Herbicidal effect or phytotoxicity of from 0 to 9%)
Herbicidal effect Common lambsquarter (Chenopodium album L.) [2, 3]: 1 (Herbicidal effect or phytotoxicity of from 10 to 19%)

melting point: 132 to 133 °C
Structure (SMILES): CC1(C)CC(S(=O)(=O)Cc2c(C(F)(F)F)nn(-c3ccccc3)c2Cl)=NO1 [Compound 3-0002, 3-(5-chloro-1-phenyl-3-trifluoromethyl-1H-pyrazol-4-ylmethylsulfonyl)-5,5-dimethyl-2-isoxazoline]
Herbicidal effect Green foxtail (Sataria viridis) [1, 4]: 5 (Herbicidal effect or phytotoxicity of from 50 to 59%)
Herbicidal effect Corn (corn; [4]): 0 (Herbicidal effect or phytotoxicity of from 0 to 9%)
Herbicidal effect Common lambsquarter (Chenopodium album L.) [2, 4]: 2 (Herbicidal effect or phytotoxicity of from 20 to 29%)

melting point: 158 to 160 °C
Structure (SMILES): CCS(=O)(=O)c1c(CS(=O)(=O)C2=NOC(C)(C)C2)c(C(F)(F)F)nn1-c1ccccc1 [Compound 3-0004, 5,5-dimethyl-3-(5-ethylsulfonyl-1-phenyl-3-trifluoromethyl-1H-pyrazol-4-ylmethylsulfonyl)-2-isoxazoline]
Herbicidal effect Green foxtail (Sataria viridis) [1, 4]: 3 (Herbicidal effect or phytotoxicity of from 30 to 39%)
Herbicidal effect Corn (corn; [4]): 0 (Herbicidal effect or phytotoxicity of from 0 to 9%)
Herbicidal effect Common lambsquarter (Chenopodium album L.) [2, 4]: 2 (Herbicidal effect or phytotoxicity of from 20 to 29%)

melting point: 150 to 151 °C
Structure (SMILES): CN(C)c1c(CS(=O)(=O)C2=NOC(C)(C)C2)c(C(F)(F)F)nn1-c1ccccc1 [Compound 3-0005, 5,5-dimethyl-3-(5-dimethylamino-1-phenyl-3-trifluoromethyl-1H-pyrazol-4-ylmethylsulfonyl)-2-isoxazoline]
Herbicidal effect Green foxtail (Sataria viridis) [1, 4]: 2 (Herbicidal effect or phytotoxicity of from 20 to 29%)
Herbicidal effect Corn (corn; [4]): 0 (Herbicidal effect or phytotoxicity of from 0 to 9%)
Herbicidal effect Common lambsquarter (Chenopodium album L.) [2, 4]: 2 (Herbicidal effect or phytotoxicity of from 20 to 29%)

melting point: 126 to 127 °C
Structure (SMILES): CC1(C)CC(S(=O)(=O)Cc2c(C(F)(F)F)nn(C(F)F)c2Cl)=NO1 [Compound 3-0010, 3-(5-chloro-1-difluoromethyl-3-trifluoromethyl-1H-pyrazol-4-ylmethylsulfonyl)-5,5-dimethyl-2-isoxazoline]
Herbicidal effect Green foxtail (Sataria viridis) [1, 5]: 2 (Herbicidal effect or phytotoxicity of from 20 to 29%)
Herbicidal effect Corn (corn; [5]): 0 (Herbicidal effect or phytotoxicity of from 0 to 9%)
Herbicidal effect Common lambsquarter (Chenopodium album L.) [2, 5]: 2 (Herbicidal effect or phytotoxicity of from 20 to 29%)

melting point: 136 to 137 °C
Structure (SMILES): CC1(C)CC(S(=O)(=O)Cc2c(Cl)nn(C(F)F)c2C(F)(F)F)=NO1 [Compound 3-0011, 3-(3-chloro-1-difluoromethyl-5-trifluoromethyl-1H-pyrazol-4-ylmethylsulfonyl)-5,5-dimethyl-2-isoxazoline]
Herbicidal effect Green foxtail (Sataria viridis) [1, 5]: 3 (Herbicidal effect or phytotoxicity of from 30 to 39%)
Herbicidal effect Corn (corn; [5]): 0 (Herbicidal effect or phytotoxicity of from 0 to 9%)
Herbicidal effect Common lambsquarter (Chenopodium album L.) [2, 5]: 2 (Herbicidal effect or phytotoxicity of from 20 to 29%)

melting point: 124 to 125 °C
Structure (SMILES): CCOc1nn(C)c(C(F)(F)F)c1CS(=O)(=O)C1=NOC(C)(C)C1 [Compound 3-0012, 5,5-dimethyl-3-(3-ethoxy-1-methyl-5-trifluoromethyl-1H-pyrazol-4-ylmethylsulfonyl)-2-isoxazoline]
Herbicidal effect Green foxtail (Sataria viridis) [1, 5]: 2 (Herbicidal effect or phytotoxicity of from 20 to 29%)
Herbicidal effect Corn (corn; [5]): 0 (Herbicidal effect or phytotoxicity of from 0 to 9%)
Herbicidal effect Common lambsquarter (Chenopodium album L.) [2, 5]: 1 (Herbicidal effect or phytotoxicity of from 10 to 19%)

melting point: 113 to 114 °C
Structure (SMILES): COc1c(CS(=O)(=O)C2=NOC(C)(C)C2)c(C(F)(F)F)nn1C [Compound 3-0013, 5,5-dimethyl-3-(5-methoxy-1-methyl-3-trifluoromethyl-1H-pyrazol-4-ylmethylsulfonyl)-2-isoxazoline]
Herbicidal effect Green foxtail (Sataria viridis) [1, 5]: 2 (Herbicidal effect or phytotoxicity of from 20 to 29%)
Herbicidal effect Corn (corn; [5]): 0 (Herbicidal effect or phytotoxicity of from 0 to 9%)
Herbicidal effect Common lambsquarter (Chenopodium album L.) [2, 5]: 2 (Herbicidal effect or phytotoxicity of from 20 to 29%)

melting point: 67 to 70 °C
Structure (SMILES): Cn1nc(C(F)(F)F)c(CS(=O)(=O)C2=NOC(C)(C)C2)c1Oc1ccccc1Cl [Compound 3-0014, 3-(5-(2-chlorophenoxy)-1-methyl-3-trifluoromethyl-1H-pyrazol-4-ylmethylsulfonyl)-5,5-dimethyl-2-isoxazoline]
Herbicidal effect Green foxtail (Sataria viridis) [1, 4]: 2 (Herbicidal effect or phytotoxicity of from 20 to 29%)
Herbicidal effect Corn (corn; [4]): 0 (Herbicidal effect or phytotoxicity of from 0 to 9%)
Herbicidal effect Common lambsquarter (Chenopodium album L.) [2, 4]: 2 (Herbicidal effect or phytotoxicity of from 20 to 29%)

melting point: 113 to 114 °C
Structure (SMILES): Cn1nc(C(F)(F)F)c(CS(=O)(=O)C2=NOC(C)(C)C2)c1OC1CCCC1 [Compound 3-0015, 3-(5-cyclopentyloxy-1-methyl-3-trifluoromethyl-1H-pyrazol-4-ylmethylsulfonyl)-5,5-dimethyl-2-isoxazoline]
Herbicidal effect Green foxtail (Sataria viridis) [1, 4]: 3 (Herbicidal effect or phytotoxicity of from 30 to 39%)
Herbicidal effect Corn (corn; [4]): 0 (Herbicidal effect or phytotoxicity of from 0 to 9%)
Herbicidal effect Common lambsquarter (Chenopodium album L.) [2, 4]: 3 (Herbicidal effect or phytotoxicity of from 30 to 39%)

melting point: 105 to 108 °C
Structure (SMILES): Cn1nc(C(F)(F)F)c(CS(=O)(=O)C2=NOC(C)(C)C2)c1C#N [Compound 3-0016, 3-(5-cyano-1-methyl-3-trifluoromethyl-1H-pyrazol-4-ylmethylsulfonyl)-5,5-dimethyl-2-isoxazoline]
Herbicidal effect Green foxtail (Sataria viridis) [1, 5]: 3 (Herbicidal effect or phytotoxicity of from 30 to 39%)
Herbicidal effect Corn (corn; [5]): 0 (Herbicidal effect or phytotoxicity of from 0 to 9%)
Herbicidal effect Common lambsquarter (Chenopodium album L.) [2, 5]: 3 (Herbicidal effect or phytotoxicity of from 30 to 39%)

Structure (SMILES): Cn1nc(C(F)(F)F)c(CS(=O)(=O)C2=NOC(C)(C)C2)c1OC(F)F [Compound 3-0188, 3-(5-difluoromethoxy-1-methyl-3-trifluoromethyl-1H-pyrazol-4-ylmethanesulfonyl)-5,5-dimethyl-2-isoxazoline]
Herbicidal effect Green foxtail (Sataria viridis) [1, 6]: 3 (Herbicidal effect or phytotoxicity of from 30 to 39%)
Herbicidal effect Common lambsquarter (Chenopodium album L.) [2, 6]: 2 (Herbicidal effect or phytotoxicity of from 20 to 29%)

Structure (SMILES): Cc1nsc(Cl)c1CS(=O)(=O)C1=NOC(C)(C)C1 [Compound 4-0002, [(5-chloro-3-methyl-isothiazol-4-yl)-methylsulfonyl]-5,5-dimethyl-2-isoxazoline]
Herbicidal effect Green foxtail (Sataria viridis) [1, 3]: 3 (Herbicidal effect or phytotoxicity of from 30 to 39%)
Herbicidal effect Corn (corn; [3]): 0 (Herbicidal effect or phytotoxicity of from 0 to 9%)
Herbicidal effect Common lambsquarter (Chenopodium album L.) [2, 3]: 2 (Herbicidal effect or phytotoxicity of from 20 to 29%)

Structure (SMILES): COc1ncnc(C(F)(F)F)c1CS(=O)(=O)C1=NOC(C)(C)C1 [Compound 8-0001, 5,5-dimethyl-[(4-methoxy-6-trifluoromethylpyrimidin-5-yl)-methylsulfonyl]-2-isoxazoline]
Herbicidal effect Green foxtail (Sataria viridis) [1, 6]: 2 (Herbicidal effect or phytotoxicity of from 20 to 29%)
Herbicidal effect Corn (corn; [6]): 0 (Herbicidal effect or phytotoxicity of from 0 to 9%)
Herbicidal effect Common lambsquarter (Chenopodium album L.) [2, 6]: 1 (Herbicidal effect or phytotoxicity of from 10 to 19%)

Structure (SMILES): CCNc1nc(Cl)nc(NC(C)(C)C#N)n1 [Cyanazine, cyanazine, reference compound]
Herbicidal effect Green foxtail (Sataria viridis) [1, 7]: 1 (Herbicidal effect or phytotoxicity of from 10 to 19%)
Herbicidal effect Green foxtail (Sataria viridis) [1, 8]: 1 (Herbicidal effect or phytotoxicity of from 10 to 19%)
Herbicidal effect Corn (corn; [7]): 0 (Herbicidal effect or phytotoxicity of from 0 to 9%)
Herbicidal effect Corn (corn; [8]): 0 (Herbicidal effect or phytotoxicity of from 0 to 9%)
Herbicidal effect Common lambsquarter (Chenopodium album L.) [2, 7]: 2 (Herbicidal effect or phytotoxicity of from 20 to 29%)
Herbicidal effect Common lambsquarter (Chenopodium album L.) [2, 8]: 2 (Herbicidal effect or phytotoxicity of from 20 to 29%)
